Test system: B16 melanoma
Assay type: in vivo, C57B/6 mice

SIINFEKL (Synthetically generated peptide)
tumor growth (tumor size) (peptide alone, 0.5 μg in 30 μl PBS into established palpable tumor, once or twice 2 days apart, no adjuvant): significant inhibition of a rapidly growing tumor | tumor size and survival, peptide combined with PD-L1 blockade (peptide twice intratumorally over 48 h plus three i.v. injections of anti-PDL1): synergizes with PD-L1 blockade

Source: patent US12370256B2, “Activation of resident memory T cells for the treatment of cancer” (Regents of the University of Minnesota, priority 2017, dated 2025)
